Measurements from patent US20110281852A1 (priority 2010, published 2011).

What was measured:
[1] = system: SERT (serotonin transporter); test: Real-Time RT-PCR, SERT mRNA in RN46A cells; type: cell-based
Procedure: Realtime RT-PCR: Real-Time reverse transcriptase polymerase chain reaction (RT-PCR) analysis was used to measure mRNA expression of SERT under the control of β-actin. Briefly, total RNA was isolated from RN46A cells following treatment with Trizol reagent (Invitrogen, Carlsbad, Calif., USA) according to the manufacturer's instruction. […] 0.8 μg of total RNA from each sample was used for reverse transcription reaction using the TaqMan Reverse Transcription Reagents (Applied Biosystems, Foster City, Calif., USA) following the manufacturer's instructions. PCR was done using the SYBR green Master Mix (Applied Biosystems, Foster City, Calif., USA) following the manufacturer's instructions. The temperature cycling conditions of amplification were as follows: an initial step of denaturation at 95° C. for 10 min, 40 cycles of denaturation at 95° C. for 30 s, annealing at 55° C. for 30 s, and elongation at 72° C. for 30 s. Real-Time RT-PCR was performed using Mx3000P Real-Time Thermocyclers (Statagene, La Jolla, Calif., USA).

[2] = system: SERT (serotonin transporter); test: Immunoblot, SERT protein in RN46A cells; type: cell-based
Procedure: Immunoblot Analysis: Protein expression of SERT was assessed by Western Blot. Total proteins were isolated from RN46A cells treated with compounds or vehicles. The cells were washed twice with PBS, lysed in a lysis buffer containing HEPES-Tx-PI buffer: 910 mM HEPES, 5 mM EDTA, 350 mM Sucrose, 1 μg/ml leupeptin, 1 μg/ml pepstatin, 1% Triton-X, 1 mM PMSF), processed with a 25G needle and centrifuged at 10,000 rpm for 5 min. Protein concentration was determined using the Micro BCA Protein Assay Kit (Fisher Scientific, Pittsburgh, Pa., USA) according to the manufacturers instructions. 25 μg proteins were loaded and separated by electrophoresis using the BioRad Electrophoretic System (60 V for 1 hour followed by 90 V for 5 hours). The proteins were then transferred to nitrocellulose membranes at 35 V overnight. The membrane was blocked for 1 hour at room temperature in 5% nonfat milk in Tris-buffered saline (TBS), then washed with Tween-20-TBS (TTBS, 0.1% Tween-20) three times (15 min, 5 min, 5 min), followed by incubation with primary antibodies SERT (dilution 1:200) (Antibody was purchased from Santa Cruz Biotechnology, Santa Cruz, Calif., USA) and β-actin (dilution 1:1000) (Antibody was purchased from Sigma-aldrich, USA) at room temperature for 2 hours. […]

[3] = Excerpt: Mouse experiments: All experiments were approved by Institutional Animal Care and Use Committee of South Dakota State University. Nine-week-old C57BL/6J male mice were purchased from The Jackson Laboratory. Group 1 mice were fed with normal diet (ND, D12450Bi, Research Diets Inc. New Brunswick, N.J., USA) for 9 weeks, group 2 mice were fed with ND for 6 weeks and then high-fat diet (FD, D12451i, Research Diets Inc. New Brunswick, N.J., USA) for 3 weeks. The mice were maintained according to The Jackson Laboratory guidelines for animal care and housed at 22±2° C. temperature, 55±5% relative humidity, with a light/dark cycle of 12 hours. Food (group 1 with normal fat diet and group 2 with high-fat diet until sacrifice) and water were provided ad libitum. […] Six mice per subgroup were obtained finally. […] Blood samples were collected from the hearts of anesthetized mice after feeding and treatment for 36 days following fast for 16 hours. When sacrificed, mouse liver, kidney, spleen and epididymal fat tissues were dissected and weighed. Epididymal fat tissues were immediately frozen in liquid nitrogen and stored at −80° C.
GATA-3 [4] = test: Real-Time RT-PCR, GATA-3 mRNA in epididymal fat of FD mice; type: in vivo, mouse
Procedure: (§1) RNA and protein purification and quantification from epididymal fat tissues: RNA and protein was isolated from 60 mg of epididymal fat tissues with Trizol (Invitrogen, Carlsbad, Calif., USA) following the protocol recommended by the manufacturers. RNA was dissolved in pure water and quantified at 260/280 nm, and sample integrity was checked by 1.5% agarose gel electrophoresis. Protein concentration was determined using the Micro BCA Protein Assay Kit (Fisher Scientific, Pittsburgh, Pa., USA) according to the manufacturer's instructions.
(§2) Quantitative Real-Time RT-PCR: Real-Time reverse transcriptase polymerase chain reaction (RT-PCR) analysis was used to measure mRNA expression of genes PPARγ, C/EBPα, GATA-2 and GATA-3 in the control of β-actin. Total RNA (0.8 μg) from each sample was used for a reverse transcription reaction using the TaqMan Reverse Transcription Reagents (Applied Biosystems, Foster City, Calif., USA) following the manufacturer's instructions. PCR was done using the SYBR green Master Mix (Applied Biosystems, Foster City, Calif., USA) following the manufacturer's instructions. The cycling conditions of amplification were as follows: an initial step of denaturation at 95° C. for 10 min, 40 cycles of denaturation at 95° C. for 30 s, annealing at 55° C. for 30 s, and elongation at 72° C. for 30 s. Real-Time PCR was performed using Mx3000P Real-Time Thermocyclers (Stratagene, La Jolla, Calif., USA). The relative mRNA levels of these genes were calculated by 2-delta delta CT method and normalized with control-treated groups.

[5] = Serum glucose assay in mice; type: in vivo, mouse
Procedure: Six mice per subgroup were obtained finally.
Serum glucose, triglyceride, cholesterol assay: Blood samples from each mouse were collected and serum was separated by centrifugation for the measurement of levels of glucose, triglyceride and total cholesterol. Serum glucose concentrations were analyzed using Glucose (HK) Assay Kit (Sigma-aldrich, Saint Louis, Mo., USA). Serum triglyceride concentrations were analyzed using Serum Triglyceride Determination Kit (Sigma-aldrich, Saint Louis, Mo., USA). Serum cholesterol concentrations were analyzed using Amplex® Red Cholesterol Assay Kit (Invitrogen, Carlsbad, Calif., USA). All experimental assays were done according to the manufacturer's instructions.

C/EBPα = test: Real-Time RT-PCR, C/EBPα mRNA in epididymal fat of FD mice; type: in vivo, mouse
Procedure: as §1, §2

GATA-3 [6] = test: Immunoblot, GATA-3 protein in 3T3-L1 cells; type: cell-based, mouse; conditions: DM + 1, 2, 4, 8 μM, 8 days, p<0.05
Procedure: Immunoblot Analysis: GATA-2 and GATA-3 protein expression were assessed by Western blot. […] The cells were washed twice with PBS, lysed in a lysis buffer (HEPES-Tx-PI buffer: 10 mM HEPES, 5 mM EDTA, 350 mM Sucrose, 1 ug/ml leupeptin, 1 ug/ml pepstatin, 1% Triton-X, 1 mM PMSF, diluted in water), processed with a 25G needle and centrifuged at 10,000 rpm for 5 min. Protein concentration was determined using the […] according to the Pierce Protein Assay Protocol. Total protein (50 μg) was used for GATA-2 and GATA-3 analysis and was separated by electrophoresis using BioRad Electrophoretic System (60 V for 1 hour followed by 90 V for 5 hours). The protein was then transferred to nitrocellulose membranes at 35 V overnight. The membrane was blocked for 1 hour at room temperature in 5% nonfat milk in Tris-buffered saline (TBS), then washed with Tween-20-TBS (TTBS, 0.1% Tween-20) three times (15 min, 5 min, 5 min), followed by incubation with primary antibodies of GATA-2 (dilution 1:500), GATA-3 (dilution 1:500), β-Actin (dilution 1:1000) at room temperature for 2 hours. The membrane was rinsed three times (15 min, 5 min, 5 min), then incubated at room temperature for 1 hour with Horseradish peroxidase-conjugated second antibody (1:10,000). The membrane was then incubated in ECL reagent for 1 minute. Protein was visualized using UVP image analysis system.

Molecule: evodiamine
- increase of SERT mRNA expression vs control group ([1]; 2 μM evodiamine): 2.5 fold
- increase of SERT mRNA expression vs control group ([1]; 4 μM evodiamine): 1.7 fold
- SERT protein expression profile (Western blot) [2]: consistent with its mRNA expression profile

Molecule: COc1ccc2cc3[n+](cc2c1OC)CCc1cc2c(cc1-3)OCO2.[Cl-] [berberine, Berberine (Chloride Form)]
- liver weight, berberine vs control treated subgroup ([3]; ND mice): no significant difference
- toxicity to FD mice organs or to ND mice ([3]; up to 3 mg/kg/day i.p., 36 days): did not appear to exhibit any obvious toxicity
- GATA-3 mRNA expression up-regulated by (GATA-3 [4]; 0.75 mg/kg/day): 3.2 fold
- GATA-3 mRNA expression up-regulated by (GATA-3 [4]; 1.5 mg/kg/day): 4.3 fold
- GATA-3 mRNA expression up-regulated by (GATA-3 [4]; 3 mg/kg/day): 4.8 fold
- reduction of serum glucose level vs control treated subgroup ([5]; FD mice, 0.75 mg/kg/day): 19.5%
- fasting serum glucose level ([5]; FD mice, 0.75 mg/kg/day, 36 days (control 195.4±27.3)): 157.3 ± 22.5 mg/dL
- reduction of serum glucose level vs control treated subgroup ([5]; FD mice, 1.5 mg/kg/day): 22.3%
- fasting serum glucose level ([5]; FD mice, 1.5 mg/kg/day, 36 days): 151.8 ± 21.1 mg/dL
- reduction of serum glucose level vs control treated subgroup ([5]; FD mice, 3 mg/kg/day): 26.5%
- fasting serum glucose level ([5]; FD mice, 3 mg/kg/day, 36 days): 143.5 ± 12.7 mg/dL
- fasting serum glucose level ([5]; ND mice, 3 mg/kg/day (control 120.6±27.5)): 130.9 ± 16.2 mg/dL
- decrease of C/EBP-α mRNA expression vs control group (C/EBPα; 0.75 mg/kg/day): 46.4%
- decrease of C/EBP-α mRNA expression vs control group (C/EBPα; 1.5 mg/kg/day): 66.1%
- decrease of C/EBP-α mRNA expression vs control group (C/EBPα; 3 mg/kg/day): 72.7%
- GATA-3 protein expression (GATA-3 [6]): increase
